In patent US20060127980A1, “Human excitatory amino acid transporter-2 gene promoter and uses thereof” (priority 2003, published 2006):

What was measured:
Assay type in all cases: cell-based, human
[1] = test system: hEAAT2 transcription; assay: Nuclear run-on assay of hEAAT2 transcription in PHFA; conditions: 7-day treatment
Method: FIG. 4A-D. Effect of modulators of hEAAT2 activity on hEAAT2 expression and hEAAT2 promoter activity in PHFA. A. A Northern analysis of hEAAT2 and GAPDH mRNA expression following treatment with EGF (30 ng/ml), TGF-α (30 ng/ml), dbcAMP (200 μM, bromo-cAMP (100 μM) or TNF-α (200 U/ml) for 7 days. B. Nuclear run-on assays determining the relative rates of hEAAT2 and GAPDH transcription as a function of 7-day treatment with the same concentrations of the indicated agents. C. A time course of mRNA expression of hEAAT2 and GAPDH following treatment with EGF, bromo-cAMP or TNF-α (same concentrations as in A.). D. Fold luciferase activity in PHFA transfected with flhEAAT2Prom-luc or various deletion mutants of hEAAT2 and non-transfected controls treated with the indicated compounds for four days.
Primer Extension Analysis and Nuclear Run-on Assays. Primer extension assays were performed as described (Su et al., 2000, Oncogene 19(30):3411-3421). A primer with the sequence 5′-[…]-3′ (SEQ ID NO:6) complementary to the 5′ UTR of the hEAAT2 cDNA was used for this assay. Nuclear run-on assays were performed as described (Su et al., 1997, Proc Natl Acad Sci USA 94(17):9125-9130).
To examine whether stimulation of hEAAT2 expression involves transcriptional changes, nuclear run-on assays were performed.

[2] = test system: hEAAT2 promoter; assay: hEAAT2 promoter luciferase assay of agents in PHFA (FIG. 10); conditions: PHFA passage #3; 10 μM
Method: (§1) FIG. 10. Effect of various agents on hEAAT2 promoter activity on primary human fetal astrocytes (PHFA). A: ceftriaxone; B: amoxicillin; C: chloramphenicol; D: thiamphenicol; E: vancomycin; F: glycine; G: glutamate; H: DMSO; I: dibutyryl cAMP. PHFA (passage #3) were seeded at 1×10^5 cells/35-mm plate. Twenty-four h later cells were untreated (CON) or received the indicated compound at a final concentration of 10 μM. Forty-eight h later the cells were transfected with a FL pGL3/EAAT2 luciferase reporter construct (5 μg) plus a pSVβGalactosidase construct (1 μg) using the calcium phosphate precipitation method (Su et al. 2003, Proc. Natl. Acad. Sci. USA 100:1955-1960). After an additional 48 h, cell lysates were prepared and luciferase activity was determined using the Luciferase Assay System Kit (Promega, E1501) and luminescence determined using a luminometer (Turner Designs, TD20/20) (Su et al. 2003, Proc. Natl. Acad. Sci. USA 100:1955-1960). Data presented are the average of 3 independent plates±S.D. Qualitatively similar results were obtained in 2 additional experiments.
as §1, with “Identification of Agents that Modulate hEAAT2 Promoter Activity. FIGS. 10-12 show the effects” for “FIG. 10. Effect”, “in PHFA (FIG. 10), PHFA-Im (FIG. 11) and H4 glioma (FIG. 12) cells. In the studies shown in FIG. 10,” for “on primary human fetal astrocytes (PHFA). A: ceftriaxone; B: amoxicillin; C: chloramphenicol; D: thiamphenicol; E: vancomycin; F: glycine; G: glutamate; H: DMSO; I: dibutyryl cAMP.”

[3] = test system: hEAAT2 promoter; assay: hEAAT2 promoter luciferase assay of agents in PHFA-Im (FIG. 11); conditions: 10 μM
Method: as §1, with “FIG. 11.” for “FIG. 10.”, “activity in immortalized” for “activity on”, “astrocytes (PHFA-Im).” for “astrocytes (PHFA).”, “cAMP. PHFA-Im is a human telomerase-immortalized clone of primary human fetal astrocytes. PHFA-Im cells” for “cAMP. PHFA (passage #3)”, “at 5×10^4” for “at 1×10^5”
as §1, with “The effects” for “FIG. 10. Effect”, “these same” for “various”, “also were examined in two other cell lines to confirm the generality of the findings. […] PHFA-Im is a cell line developed from a clonal isolate of a” for “on hEAAT2 promoter activity on”, “astrocyte immortalized by transformation with the reverse transcriptase subunit of human telomerase. PHFA-Im cells” for “astrocytes (PHFA). A: ceftriaxone; B: amoxicillin; C: chloramphenicol; D: thiamphenicol; E: vancomycin; F: glycine; G: glutamate; H: DMSO; I: dibutyryl cAMP. PHFA (passage #3)”, “5×10^4” for “1×10^5”

CCCC(=O)Nc1ncnc2c1ncn2[C@@H]1O[C@@H]2COP(=O)(O)O[C@H]2[C@H]1OC(=O)CCC [dbcAMP, dibutyryl cyclic AMP] was tested. Which “relative rate of transcription of hEAAT2 RNA compared with GAPDH” value [1] did it give?
Its value is “elevated”.

And the hEAAT2 promoter activity [2]?
Its hEAAT2 promoter activity is “potent stimulators”.

And the hEAAT2 promoter activity [3]?
Its hEAAT2 promoter activity is “potent stimulators”.
